Patent publication US10517889B2, “Modulators of SMAD7 expression” (Ionis Pharmaceuticals, Inc., priority 2017, dated 2019)
Strand notation (5' to 3'): a small letter for the sugar, then the base; units joined by * are phosphorothioate-linked, units joined directly phosphodiester-linked; [ ] holds rarer units or linkages, { } end groups; capitals alone tell only the bases. k = constrained ethyl (cEt); [5mC] = 5-methylcytosine; d = 2'-deoxy (DNA)

Test system: human SMAD7 mRNA
Assay: Antisense inhibition of human SMAD7 mRNA expression in Hep3B cells by 3-10-3 cEt gapmers, 10,000 nM, electroporation (Example 2)
Type: cell-based
Conditions: Hep3B cells, electroporation with 10,000 nM antisense oligonucleotide, approximately 24 hours, SMAD7 mRNA by RT-PCR (RTS5062), relative to untreated control cells
Outline: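 Percent inhibition of SMAD7 mRNA, relative to untreated cells, after ~24 h exposure of electroporated Hep3B cells to 10,000 nM cEt gapmer; levels by qRT-PCR, corrected for total RNA.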

Substance | % Inhibition
830026 (antisense kT*kT*kT*dT*dG*dT*dA*dA*dA*dT*d[5mC]*dG*dA*kA*kA*kG) [compound 830026] | 0%
830029 (antisense kT*k[5mC]*kA*d[5mC]*dT*d[5mC]*d[5mC]*dA*d[5mC]*dT*d[5mC]*dA*d[5mC]*k[5mC]*kG*kA) [compound 830029] | 56%
830030 (antisense kA*k[5mC]*k[5mC]*dT*dA*dA*dT*dG*dT*d[5mC]*dA*dA*d[5mC]*kA*k[5mC]*kT) [compound 830030] | 36%
830031 (antisense kT*kA*k[5mC]*d[5mC]*dT*dA*dA*dT*dG*dT*d[5mC]*dA*dA*k[5mC]*kA*k[5mC]) [compound 830031] | 44%
830032 (antisense kG*k[5mC]*kT*dA*d[5mC]*d[5mC]*dT*dA*dA*dT*dG*dT*d[5mC]*kA*kA*k[5mC]) [compound 830032] | 35%
830033 (antisense kT*k[5mC]*k[5mC]*d[5mC]*d[5mC]*d[5mC]*dT*dT*dG*dG*dA*dA*dA*kT*kG*kG) [compound 830033] | 28%
830034 (antisense kG*kG*k[5mC]*dT*dG*dA*dT*d[5mC]*dT*dG*dG*dA*dG*kA*kA*k[5mC]) [compound 830034] | 30%
830035 (antisense kA*kT*kT*dG*dG*d[5mC]*dT*dG*dA*dT*d[5mC]*dT*dG*kG*kA*kG) [compound 830035] | 48%
830036 (antisense kT*kA*kT*dT*dG*dG*d[5mC]*dT*dG*dA*dT*d[5mC]*dT*kG*kG*kA) [compound 830036] | 52%
830038 (antisense k[5mC]*k[5mC]*kT*dA*dT*dT*dG*dG*d[5mC]*dT*dG*dA*dT*k[5mC]*kT*kG) [compound 830038] | 50%
830039 (antisense kT*kT*k[5mC]*d[5mC]*dT*dA*dT*dT*dG*dG*d[5mC]*dT*dG*kA*kT*k[5mC]) [compound 830039] | 51%
830040 (antisense k[5mC]*kA*k[5mC]*dT*dT*d[5mC]*d[5mC]*dT*dA*dT*dT*dG*dG*k[5mC]*kT*kG) [compound 830040] | 44%
830041 (antisense kT*k[5mC]*kA*d[5mC]*dT*dT*d[5mC]*d[5mC]*dT*dA*dT*dT*dG*kG*k[5mC]*kT) [compound 830041] | 56%
830042 (antisense k[5mC]*kA*kG*dG*dT*dT*dA*dA*dT*d[5mC]*dA*d[5mC]*dT*kT*k[5mC]*k[5mC]) [compound 830042] | 64%
830043 (kT*kT*kG*dG*d[5mC]*dA*dG*dG*dT*dT*dA*dA*dT*k[5mC]*kA*k[5mC]; antisense) [compound 830043] | 45%
830045 (k[5mC]*k[5mC]*kG*dA*dT*dT*dG*dG*d[5mC]*dA*dG*dG*dT*kT*kA*kA; antisense) [compound 830045] | 47%
830046 (kT*k[5mC]*k[5mC]*dG*dA*dT*dT*dG*dG*d[5mC]*dA*dG*dG*kT*kT*kA; antisense) [compound 830046] | 60%
830047 (kT*kT*k[5mC]*d[5mC]*dG*dA*dT*dT*dG*dG*d[5mC]*dA*dG*kG*kT*kT; antisense) [compound 830047] | 42%
830048 (kT*kT*kT*d[5mC]*d[5mC]*dG*dA*dT*dT*dG*dG*d[5mC]*dA*kG*kG*kT; antisense) [compound 830048] | 57%
830049 (kG*kT*kT*dT*d[5mC]*d[5mC]*dG*dA*dT*dT*dG*dG*d[5mC]*kA*kG*kG; antisense) [compound 830049] | 43%
830050 (kA*kG*kT*dT*dT*d[5mC]*d[5mC]*dG*dA*dT*dT*dG*dG*k[5mC]*kA*kG; antisense) [compound 830050] | 39%
830052 (kG*kA*kG*dT*dA*dA*d[5mC]*d[5mC]*dA*dG*d[5mC]*dT*dG*kT*k[5mC]*kT; antisense) [compound 830052] | 35%
830054 (kT*kG*kG*dG*dT*dG*dA*dG*dT*dA*dA*d[5mC]*d[5mC]*kA*kG*k[5mC]; antisense) [compound 830054] | 48%
830055 (kT*kT*kG*dG*dG*dT*dG*dA*dG*dT*dA*dA*d[5mC]*k[5mC]*kA*kG; antisense) [compound 830055] | 57%
830056 (kG*kT*kT*dT*dT*dG*dG*dG*dT*dG*dA*dG*dT*kA*kA*k[5mC]; antisense) [compound 830056] | 40%
830057 (k[5mC]*kG*kT*dT*dT*dT*dG*dG*dG*dT*dG*dA*dG*kT*kA*kA; antisense) [compound 830057] | 42%
830058 (kG*kG*kT*dA*dG*dG*d[5mC]*dA*d[5mC]*dA*dT*d[5mC]*dA*kT*k[5mC]*kA; antisense) [compound 830058] | 22%

Substance | % Inhibition
830059 (kG*kG*kG*d[5mC]*d[5mC]*dA*d[5mC]*d[5mC]*d[5mC]*dA*dG*dT*dG*kA*kG*k[5mC]; antisense) [compound 830059] | 22%
830060 (kT*kA*k[5mC]*d[5mC]*dA*d[5mC]*d[5mC]*d[5mC]*d[5mC]*dT*dG*dT*dG*kA*kA*kG; antisense) [compound 830060] | 8%
830061 (k[5mC]*kT*kA*d[5mC]*d[5mC]*dA*d[5mC]*d[5mC]*d[5mC]*d[5mC]*dT*dG*dT*kG*kA*kA; antisense) [compound 830061] | 4%
830062 (k[5mC]*k[5mC]*kT*dA*d[5mC]*d[5mC]*dA*d[5mC]*d[5mC]*d[5mC]*d[5mC]*dT*dG*kT*kG*kA; antisense) [compound 830062] | 17%
830063 (kT*k[5mC]*k[5mC]*d[5mC]*dT*dA*d[5mC]*d[5mC]*dA*d[5mC]*d[5mC]*d[5mC]*d[5mC]*kT*kG*kT; antisense) [compound 830063] | 37%
830064 (kA*kT*kG*dG*dT*dG*d[5mC]*dT*d[5mC]*dT*dG*d[5mC]*d[5mC]*k[5mC]*kT*kT; antisense) [compound 830064] | 29%
830065 (kA*kA*kT*dG*dG*dT*dG*d[5mC]*dT*d[5mC]*dT*dG*d[5mC]*k[5mC]*k[5mC]*kT; antisense) [compound 830065] | 43%
830066 (kA*kA*kA*dT*dG*dG*dT*dG*d[5mC]*dT*d[5mC]*dT*dG*k[5mC]*k[5mC]*k[5mC]; antisense) [compound 830066] | 37%
830068 (kG*kT*kG*dA*dA*dA*dT*dG*dG*dT*dG*d[5mC]*dT*k[5mC]*kT*kG; antisense) [compound 830068] | 39%
830069 (kA*kA*kG*dG*dT*dA*dA*dG*d[5mC]*d[5mC]*dA*dG*d[5mC]*kT*k[5mC]*k[5mC]; antisense) [compound 830069] | 51%
830070 (kA*kA*kA*dG*dG*dT*dA*dA*dG*d[5mC]*d[5mC]*dA*dG*k[5mC]*kT*k[5mC]; antisense) [compound 830070] | 44%
830071 (kT*k[5mC]*kA*dA*dA*dG*dG*dT*dA*dA*dG*d[5mC]*d[5mC]*kA*kG*k[5mC]; antisense) [compound 830071] | 45%
830072 (kA*kT*k[5mC]*dA*dA*dA*dG*dG*dT*dA*dA*dG*d[5mC]*k[5mC]*kA*kG; antisense) [compound 830072] | 28%
830073 (kT*k[5mC]*kA*dG*dA*dT*d[5mC]*dA*dA*dA*dG*dG*dT*kA*kA*kG; antisense) [compound 830073] | 41%
830074 (k[5mC]*kT*k[5mC]*dA*dG*dA*dT*d[5mC]*dA*dA*dA*dG*dG*kT*kA*kA; antisense) [compound 830074] | 43%
830075 (kT*k[5mC]*kA*dG*dG*dG*dT*dG*dT*d[5mC]*dA*dG*d[5mC]*k[5mC]*k[5mC]*kA; antisense) [compound 830075] | 39%
830076 (k[5mC]*kA*k[5mC]*dA*dT*dT*d[5mC]*dA*dG*dG*dG*dT*dG*kT*k[5mC]*kA; antisense) [compound 830076] | 43%
830077 (k[5mC]*k[5mC]*kA*d[5mC]*dA*dT*dT*d[5mC]*dA*dG*dG*dG*dT*kG*kT*k[5mC]; antisense) [compound 830077] | 37%
830078 (kA*k[5mC]*k[5mC]*dA*d[5mC]*dA*dT*dT*d[5mC]*dA*dG*dG*dG*kT*kG*kT; antisense) [compound 830078] | 0%
830079 (kA*kT*kA*d[5mC]*d[5mC]*d[5mC]*dT*dG*d[5mC]*dA*d[5mC]*dT*dT*kT*k[5mC]*kT; antisense) [compound 830079] | 22%
830080 (kT*kA*kT*dA*d[5mC]*d[5mC]*d[5mC]*dT*dG*d[5mC]*dA*d[5mC]*dT*kT*kT*k[5mC]; antisense) [compound 830080] | 32%
830081 (kG*kT*kG*dT*dA*dT*dA*d[5mC]*d[5mC]*d[5mC]*dT*dG*d[5mC]*kA*k[5mC]*kT; antisense) [compound 830081] | 0%
830082 (kG*kG*kT*dG*dT*dA*dT*dA*d[5mC]*d[5mC]*d[5mC]*dT*dG*k[5mC]*kA*k[5mC]; antisense) [compound 830082] | 34%
830083 (kA*kT*kG*dG*dT*dG*dT*dA*dT*dA*d[5mC]*d[5mC]*d[5mC]*kT*kG*k[5mC]; antisense) [compound 830083] | 54%
830084 (kG*kA*kT*dA*d[5mC]*dA*d[5mC]*dT*dT*dA*dA*dT*d[5mC]*kA*kA*kA; antisense) [compound 830084] | 26%
830085 (k[5mC]*kA*kG*dG*dA*dT*dA*d[5mC]*dA*d[5mC]*dT*dT*dA*kA*kT*k[5mC]; antisense) [compound 830085] | 27%
830086 (kT*kT*kT*dA*d[5mC]*dA*dG*dG*dA*dT*dA*d[5mC]*dA*k[5mC]*kT*kT; antisense) [compound 830086] | 40%
